Source: publication PMC10449848, “Structural basis of lipid-droplet localization of 17-beta-hydroxysteroid dehydrogenase 13” (Nature Communications, 2023)
“And” between values parts separate entries of the source, which are not always exact repeats. Equal values may be shown once.

Legend:
[1] = target: T1, human HSD17B13 (Homo sapiens, UniProt Q7Z5P4); test: HSD17B13 purified protein biochemical enzyme activity assay, NAD(P)H-Glo luciferase readout; conditions: IC 50 mean, Supplementary Figure 8 source data, unit inferred, uM printed
T1 construct: human HSD17B13 (residues 2-300, NP_835236.2); 10x His (N); TEV protease site (N); made in house; host or cells: Sf9 (baculovirus)
T1 sequence (Q7Z5P4 2-300): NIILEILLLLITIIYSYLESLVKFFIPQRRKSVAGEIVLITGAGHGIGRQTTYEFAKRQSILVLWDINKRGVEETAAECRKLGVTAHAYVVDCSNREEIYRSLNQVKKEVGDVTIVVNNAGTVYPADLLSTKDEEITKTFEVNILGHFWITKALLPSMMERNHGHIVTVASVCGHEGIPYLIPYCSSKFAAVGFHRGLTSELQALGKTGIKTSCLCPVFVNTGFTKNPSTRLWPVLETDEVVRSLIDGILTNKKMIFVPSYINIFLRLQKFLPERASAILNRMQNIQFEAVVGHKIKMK
Experimental: HSD17B13 enzyme inhibition potency of test compounds was determined using a purified protein biochemical enzyme activity assay, using NAD(P)H-Glo luciferase readout (Promega). HSD17B13 enzyme uses the oxidized form of nicotinamide adenine dinucleotide (NAD^+) as a cofactor during metabolism of β-estradiol (substrate) to […] (product), while converting NAD^+ to the reduced form (NADH). The Promega NAD(P)H-Glo™ assay is a homogeneous bioluminescent assay that generates a light signal from biochemical reactions that contain NADH (or nicotinamide adenine dinucleotide phosphate, NADPH). In the presence of NADH (or NADPH), the enzyme Reductase reduces a proluciferin reductase substrate to form luciferin. Luciferin then is quantified using Ultra-Glo™ Recombinant Luciferase (rLuciferase), and the light signal produced is proportional to the amount of NAD(P)H in the sample. […] The reaction was initiated by the addition of 2 µL/well purified HSD17B13 protein (30 nM FAC in assay buffer). […] Detection reagent was incubated in the dark for 1 hour at room temperature before plates were read on the Envision plate reader (Perkin Elmer) using a luminescent protocol. Data expressed as relative luminescent units (RLUs) were then normalized to control wells using Activity Base (IDBS). […]

[2] = target: T2, human HSD17B11 (Homo sapiens, UniProt Q8NBQ5); test: Thermal shift assay (static light scattering, Tagg), human HSD17B11; assay type: binding; conditions: Fig. 6d, 500 μM NAD+
T2 construct: human HSD17B11 (residues 2-300, NP_057329.3); 10x His (N); TEV protease site (N); made in house; host or cells: Sf9 (baculovirus)
T2 sequence (Q8NBQ5 2-300): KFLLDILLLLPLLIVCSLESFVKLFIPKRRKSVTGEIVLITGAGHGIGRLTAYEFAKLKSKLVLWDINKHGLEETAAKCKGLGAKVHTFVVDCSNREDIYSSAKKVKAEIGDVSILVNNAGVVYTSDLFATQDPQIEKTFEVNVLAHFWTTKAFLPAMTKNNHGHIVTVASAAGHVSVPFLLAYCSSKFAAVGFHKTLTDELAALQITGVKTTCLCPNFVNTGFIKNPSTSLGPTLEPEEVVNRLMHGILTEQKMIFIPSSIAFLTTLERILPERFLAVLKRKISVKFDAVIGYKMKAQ
Source text: Because of the low enzymatic activities of dog wild-type HSD17B13 (Fig. 6a) and HSD17B11 with β-estradiol, it was difficult to measure compound inhibition of these proteins in a biochemical assay and we instead utilized direct binding methods to compare compounds interaction with different proteins. To understand ligand binding, we tested several approaches such as surface plasmon resonance and isothermal calorimetry. Like many membrane/detergent-associated proteins, however, these methods were not amenable for HSD17B13. We next turned to thermal shift assays (TSA) for comparing ligand binding affinities. TSA measures the changes in the thermal denaturation temperature of a protein under different conditions such as the presence compound, changes in buffer conditions, or sequence mutations. There are various readouts including intrinsic fluorescence or light scattering signals. We chose the static light scattering methods to detect the temperatures at which our proteins start to aggregate (Tagg), which are more suitable for membrane proteins that require detergent micelles for stability. Given that in theory[51] and in practice Tagg continues to increase with concentration of ligands far above their IC50s, we used high cofactor and inhibitor concentrations in the TSA experiments to maximize the ligand binding signal.
TSA studies were run on the UNit instrument (Unchained Labs, CA, USA). Experiments were run in either 25 mM sodium phosphate pH 7, 150 mM NaCl, 10% glycerol, 1 mM TCEP, 0.05% DDM, + different cofactors (NAD^+, NADH, NADP, NADPH; MilliporeSigma) or 25 mM HEPES pH 7.2, 300 mM NaCl, 0.5 mM TCEP, 0.05% DDM, 10% glycerol, ±500 µM NAD^+, and ±100 µM compound 1 (from 2 mM DMSO stock) or DMSO or 50 mM Hepes pH 7.5, 300 mM NaCl, 0.5 mM TCEP, 0.05% DDM, 500 µM NAD^+, ± 50 µM compounds (from 2 mM stock) or DMSO. Protein aggregation was measured by static light scattering at 266 and 473 nm with a 1 °C/sec ramp rate from 20-80 °C. The data was processed using the UNcle software (Unchained Labs, CA, USA), and temperatures at which the protein started aggregation were recorded as Tagg. Reported Tagg and analysis were based on measurements at 266 nm unless otherwise indicated. The protein concentration used was 10.4 μM.

[3] = target: T1, human HSD17B13; test: HSD17B13 purified protein biochemical enzyme activity assay, NAD(P)H-Glo luciferase readout; conditions: Leukotriene B4 as substrate, NAD+ cofactor

For `O=C(NC[C@]1(O)CC[C@H](COc2ccccc2F)CC1)c1ccc(O)c(F)c1` [Compound 1], the IC50 [1] was 0.18 µM, the “effect on protein stability in TSA” value [2] was “neither 1 nor 2 showed an effect on protein stability” and the Tagg ([2]; 50 µM compound) was 37.65 °C and 35.79 °C and 38.54 °C and 39 °C and 39.99 °C and 38.79 °C and 39.64 °C and 38.95 °C. The IC50 [3] was 250 ± 90 nM.
